From ChEMBL document CHEMBL1133808, “The discovery of sulfonylated dipeptides as potent VLA-4 antagonists” (Bioorg Med Chem Lett, 2001)
Starred links: 1 amine or outer side, 2 acyl side, 3 side chain; linkers in the order of their positions; H or OH if unused. Non-standard residues stand in square brackets, D forms with d. Residues, ends and D or L forms follow the SMILES beside them. *: point of attachment. X1 = O=C(Cc1ccc(N[*:1])cc1)[*:2]; NH(2-Me-phenyl) = Cc1ccccc1N*; CO = O=C([*:1])[*:2]

Legend:
[1] = target: T1, Integrin alpha-4/beta-7 (Homo sapiens, UniProt P13612+P26010); assay: Inhibition of [125I]VCAM-Ig binding to alpha4-beta7 integrin of human RPMI-8866 cells; type: cell-based
T1 sequence (P13612 whole entry): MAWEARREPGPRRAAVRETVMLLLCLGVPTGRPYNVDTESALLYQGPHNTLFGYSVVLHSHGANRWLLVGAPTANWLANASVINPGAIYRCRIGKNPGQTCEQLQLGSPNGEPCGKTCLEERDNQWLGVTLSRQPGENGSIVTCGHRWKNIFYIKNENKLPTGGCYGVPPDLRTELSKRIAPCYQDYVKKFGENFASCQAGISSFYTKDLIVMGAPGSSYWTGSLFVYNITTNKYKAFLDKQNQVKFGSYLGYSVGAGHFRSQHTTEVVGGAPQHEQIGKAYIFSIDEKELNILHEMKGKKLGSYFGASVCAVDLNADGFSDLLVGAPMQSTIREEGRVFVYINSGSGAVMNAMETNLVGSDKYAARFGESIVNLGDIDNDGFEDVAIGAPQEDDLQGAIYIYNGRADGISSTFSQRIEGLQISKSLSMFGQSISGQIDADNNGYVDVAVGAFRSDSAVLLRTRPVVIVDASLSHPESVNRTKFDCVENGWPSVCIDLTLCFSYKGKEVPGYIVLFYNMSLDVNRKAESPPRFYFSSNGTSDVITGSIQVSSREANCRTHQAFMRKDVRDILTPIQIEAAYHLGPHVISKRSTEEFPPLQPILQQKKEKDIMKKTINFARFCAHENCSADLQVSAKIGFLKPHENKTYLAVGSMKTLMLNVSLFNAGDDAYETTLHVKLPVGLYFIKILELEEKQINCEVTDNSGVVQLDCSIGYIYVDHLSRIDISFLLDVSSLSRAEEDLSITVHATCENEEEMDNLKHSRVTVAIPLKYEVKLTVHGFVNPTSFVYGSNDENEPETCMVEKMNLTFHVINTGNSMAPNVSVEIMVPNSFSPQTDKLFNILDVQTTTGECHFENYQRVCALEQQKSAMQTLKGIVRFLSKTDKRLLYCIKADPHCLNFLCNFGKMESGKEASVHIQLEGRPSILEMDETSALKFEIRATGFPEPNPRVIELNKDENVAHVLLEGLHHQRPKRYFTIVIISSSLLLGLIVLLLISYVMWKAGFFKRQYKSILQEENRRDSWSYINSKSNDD
T1 sequence (P26010 whole entry): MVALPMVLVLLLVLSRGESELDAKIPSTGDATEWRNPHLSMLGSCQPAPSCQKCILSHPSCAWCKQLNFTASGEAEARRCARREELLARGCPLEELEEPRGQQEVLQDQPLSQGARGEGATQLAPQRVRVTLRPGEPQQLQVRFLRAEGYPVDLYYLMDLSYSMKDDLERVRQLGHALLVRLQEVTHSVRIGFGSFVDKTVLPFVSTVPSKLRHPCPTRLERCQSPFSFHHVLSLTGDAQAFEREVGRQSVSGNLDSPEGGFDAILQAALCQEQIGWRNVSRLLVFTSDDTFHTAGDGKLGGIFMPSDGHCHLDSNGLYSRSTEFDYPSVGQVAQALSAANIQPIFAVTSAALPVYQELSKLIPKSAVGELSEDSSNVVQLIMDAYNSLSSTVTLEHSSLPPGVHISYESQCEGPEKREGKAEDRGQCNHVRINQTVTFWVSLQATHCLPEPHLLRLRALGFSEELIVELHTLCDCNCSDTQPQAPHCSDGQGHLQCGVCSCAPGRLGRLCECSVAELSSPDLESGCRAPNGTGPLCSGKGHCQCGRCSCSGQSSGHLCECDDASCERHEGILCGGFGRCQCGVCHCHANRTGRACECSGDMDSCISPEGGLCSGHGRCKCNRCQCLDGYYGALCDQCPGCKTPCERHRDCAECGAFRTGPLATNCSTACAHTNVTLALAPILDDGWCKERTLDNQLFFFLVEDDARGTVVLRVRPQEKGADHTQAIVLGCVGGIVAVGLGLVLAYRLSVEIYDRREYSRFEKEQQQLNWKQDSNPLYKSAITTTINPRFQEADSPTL

[2] = target: Integrin alpha-4/beta-1 (Homo sapiens, UniProt P05556+P13612); assay: Antagonistic activity against VLA-4 integrin of human jurkat cells using [125I]VCAM-Ig as radioligand; type: functional, cell-based
[3] = target: T1, Integrin alpha-4/beta-7; assay: Inhibition of [125I]MAdCAM-Ig binding to alpha4-beta7 integrin of human RPMI-8866 cells; type: cell-based
[4] = Plasma clearance in Sprague-Dawley rats; type: ADME, organism-based; conditions: rat, read-out: Clp
[5] = Plasma half-life in Sprague-Dawley rats; type: ADME, organism-based; conditions: rat

Sequence of Integrin alpha-4/beta-1 (P05556 whole entry, one chain of several): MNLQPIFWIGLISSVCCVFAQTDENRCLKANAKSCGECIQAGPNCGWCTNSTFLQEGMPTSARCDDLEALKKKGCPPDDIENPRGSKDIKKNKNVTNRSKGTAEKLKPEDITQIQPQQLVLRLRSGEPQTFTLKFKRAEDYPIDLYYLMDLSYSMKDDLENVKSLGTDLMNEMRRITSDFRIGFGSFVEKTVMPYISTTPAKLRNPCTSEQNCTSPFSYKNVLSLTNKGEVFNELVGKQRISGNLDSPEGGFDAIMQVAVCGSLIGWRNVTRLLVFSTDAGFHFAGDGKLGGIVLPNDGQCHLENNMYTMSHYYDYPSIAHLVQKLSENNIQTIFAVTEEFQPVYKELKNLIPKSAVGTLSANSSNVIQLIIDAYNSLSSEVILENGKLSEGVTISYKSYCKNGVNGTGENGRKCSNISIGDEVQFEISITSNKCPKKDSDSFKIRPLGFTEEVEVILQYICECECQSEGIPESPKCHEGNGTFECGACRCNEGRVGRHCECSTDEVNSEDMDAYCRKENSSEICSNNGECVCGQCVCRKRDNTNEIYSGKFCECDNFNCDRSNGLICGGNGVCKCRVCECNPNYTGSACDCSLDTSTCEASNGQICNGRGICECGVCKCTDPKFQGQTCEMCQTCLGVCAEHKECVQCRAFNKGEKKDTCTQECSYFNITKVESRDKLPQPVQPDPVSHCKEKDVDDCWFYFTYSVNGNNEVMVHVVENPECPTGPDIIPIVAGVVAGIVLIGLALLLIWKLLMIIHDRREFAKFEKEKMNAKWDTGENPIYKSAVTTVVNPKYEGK

Row | IC50 [1] [nM] | IC50 [2] [nM] | SMILES | further results
1 | > 4000 | 2.4 | C[C@@]1(C(=O)N[C@@H](Cc2ccc(-c3ccccc3F)cc2)C(=O)O)CCCN1S(=O)(=O)c1cc(Cl)cc(Cl)c1 | –
2 | – | 0.28 | COc1cccc(C#N)c1-c1ccc(C[C@H](NC(=O)[C@]2(C)CCCN2S(=O)(=O)c2cc(Cl)cc(Cl)c2)C(=O)O)cc1 | IC50 [3]: 77 nM
3 | – | 1.53 | Cc1ccc(-c2ccc(C[C@H](NC(=O)[C@@H]3CCCN3S(=O)(=O)c3cc(Cl)cc(Cl)c3)C(=O)O)cc2)cc1 | –
4 | – | 0.15 | COC(=O)c1ccccc1-c1ccc(C[C@H](NC(=O)[C@@H]2CCCN2S(=O)(=O)c2cc(Cl)cc(Cl)c2)C(=O)O)cc1 | –
5 | – | 0.22 | O=Cc1ccccc1-c1ccc(C[C@H](NC(=O)[C@@H]2CCCN2S(=O)(=O)c2cc(Cl)cc(Cl)c2)C(=O)O)cc1 | –
6 | 311 | 0.35 | C[C@@]1(C(=O)N[C@@H](Cc2ccc(-c3cccnc3)cc2)C(=O)O)CCCN1S(=O)(=O)c1cc(Cl)cc(Cl)c1 | –
7 | 82.7 | 0.22 | CN(C)C(=O)c1ccccc1-c1ccc(C[C@H](NC(=O)[C@]2(C)CCCN2S(=O)(=O)c2cc(Cl)cc(Cl)c2)C(=O)O)cc1 | –
8 | – | 0.23 | O=Cc1cccc(-c2ccc(C[C@H](NC(=O)[C@@H]3CCCN3S(=O)(=O)c3cc(Cl)cc(Cl)c3)C(=O)O)cc2)c1 | –
9 | – | 0.11 | COc1cccnc1-c1ccc(C[C@H](NC(=O)[C@]2(C)CCCN2S(=O)(=O)c2cc(Cl)cc(Cl)c2)C(=O)O)cc1 | clearance [4]: 71 mL/min/kg; half-life [5]: 30 min; IC50 [3]: 52.5 nM
10 | 78.2 | 0.65 | CSc1ccccc1-c1ccc(C[C@H](NC(=O)[C@]2(C)CCCN2S(=O)(=O)c2cc(Cl)cc(Cl)c2)C(=O)O)cc1 | –
11 | – | 10 | CCCC[C@H](NC(=O)[C@@H]1Cc2ccccc2CN1S(=O)(=O)c1cc(Cl)cc(Cl)c1)C(=O)O | –
12 | – | 0.9 | O=C(O)[C@H](Cc1ccc(-c2ccc(F)cc2)cc1)NC(=O)[C@@H]1CCCN1S(=O)(=O)c1cc(Cl)cc(Cl)c1 | –
13 | – | 0.54 | O=C(O)c1cccc(-c2ccc(C[C@H](NC(=O)[C@@H]3CCCN3S(=O)(=O)c3cc(Cl)cc(Cl)c3)C(=O)O)cc2)c1 | –
14 | 413 | 0.24 | C[C@@]1(C(=O)N[C@@H](Cc2ccc(-c3nccs3)cc2)C(=O)O)CCCN1S(=O)(=O)c1cc(Cl)cc(Cl)c1 | –
15 | – | 0.14 | C[C@@]1(C(=O)N[C@@H](Cc2ccc(-c3ncccc3C#N)cc2)C(=O)O)CCCN1S(=O)(=O)c1cc(Cl)cc(Cl)c1 | –
16 | – | 0.09 | COc1cccc(OC)c1-c1ccc(C[C@H](NC(=O)[C@@H]2CCCN2S(=O)(=O)c2cc(Cl)cc(Cl)c2)C(=O)O)cc1 | –
17 | – | 7 | COc1ccc(S(=O)(=O)N2Cc3ccccc3C[C@H]2C(=O)N[C@@H](Cc2ccc3ccccc3c2)C(=O)O)cc1OC | –
18 | 433 | – | Cc1ccccc1NC(=O)Nc1ccc(CC(=O)N[C@@H](CC(C)C)C(=O)N[C@@H](CC(=O)O)C(=O)N[C@H](C(=O)N2CCC[C@H]2C(=O)O)C(C)C)cc1 ({NH(2-Me-phenyl)-CO}-[X1]LDVP-OH) | IC50 [3]: 862 nM
19 | 1140 | 1.12 | C[C@@]1(C(=O)N[C@@H](Cc2ccc(-c3cccc(C#N)c3)cc2)C(=O)O)CCCN1S(=O)(=O)c1cc(Cl)cc(Cl)c1 | –
20 | – | 360 | COc1ccc(S(=O)(=O)N2Cc3ccccc3C[C@H]2C(=O)N[C@@H](CCCNC(=N)N)C(=O)O)cc1OC | –
21 | – | 0.1 | CS(=O)(=O)c1ccccc1-c1ccc(C[C@H](NC(=O)[C@@H]2CCCN2S(=O)(=O)c2cc(Cl)cc(Cl)c2)C(=O)O)cc1 | –
22 | 5720 | 1.33 | C[C@@]1(C(=O)N[C@@H](Cc2ccc(-c3cccc4cc[nH]c34)cc2)C(=O)O)CCCN1S(=O)(=O)c1cc(Cl)cc(Cl)c1 | –

Row | IC50 [1] [nM] | IC50 [2] [nM] | SMILES | further results
23 | 242 | 0.52 | COc1ccccc1-c1ccc(C[C@H](NC(=O)[C@]2(C)CCCN2S(=O)(=O)c2cc(Cl)cc(Cl)c2)C(=O)O)cc1 | clearance [4]: 20 mL/min/kg
24 | – | 0.95 | O=C(O)c1ccccc1-c1ccc(C[C@H](NC(=O)[C@@H]2CCCN2S(=O)(=O)c2cc(Cl)cc(Cl)c2)C(=O)O)cc1 | –
25 | – | 4.5 | CC(C)C(=O)Oc1cccc(OC(=O)C(C)C)c1-c1ccc(C[C@H](NC(=O)[C@]2(C)CCCN2S(=O)(=O)c2cc(Cl)cc(Cl)c2)C(=O)O)cc1 | IC50 [3]: 3550 nM
26 | 13.2 | 0.16 | C[C@@]1(C(=O)N[C@@H](Cc2ccc(-c3ccccc3S(C)(=O)=O)cc2)C(=O)O)CCCN1S(=O)(=O)c1cc(Cl)cc(Cl)c1 | –
27 | – | 45 | CCCC[C@H](NC(=O)[C@@H]1CCCN1S(=O)(=O)c1ccc(OC)c(OC)c1)C(=O)O | –
28 | – | 0.52 | C[C@@]1(C(=O)N[C@@H](Cc2ccc(-c3nc[nH]n3)cc2)C(=O)O)CCCN1S(=O)(=O)c1cc(Cl)cc(Cl)c1 | IC50 [3]: 949 nM
29 | – | 0.5 | C[C@@]1(C(=O)N[C@@H](Cc2ccc(-c3c(O)cccc3O)cc2)C(=O)O)CCCN1S(=O)(=O)c1cc(Cl)cc(Cl)c1 | IC50 [3]: 670 nM
30 | – | 0.09 | NC(=O)c1ccccc1-c1ccc(C[C@H](NC(=O)[C@@H]2CCCN2S(=O)(=O)c2cc(Cl)cc(Cl)c2)C(=O)O)cc1 | –
31 | – | 0.36 | CSc1ccccc1-c1ccc(C[C@H](NC(=O)[C@@H]2CCCN2S(=O)(=O)c2cc(Cl)cc(Cl)c2)C(=O)O)cc1 | –
32 | – | 0.63 | O=C(O)[C@H](Cc1ccc(-c2ccccc2)cc1)NC(=O)[C@@H]1CCCN1S(=O)(=O)c1cc(Cl)cc(Cl)c1 | –
33 | 24.3 | 0.14 | C[C@@]1(C(=O)N[C@@H](Cc2ccc(-c3ccccc3C(N)=O)cc2)C(=O)O)CCCN1S(=O)(=O)c1cc(Cl)cc(Cl)c1 | half-life [5]: 66 min
34 | – | 1.43 | Cc1ccccc1-c1ccc(C[C@H](NC(=O)[C@@H]2CCCN2S(=O)(=O)c2cc(Cl)cc(Cl)c2)C(=O)O)cc1 | –
35 | – | 0.39 | N#Cc1cccc(-c2ccc(C[C@H](NC(=O)[C@@H]3CCCN3S(=O)(=O)c3cc(Cl)cc(Cl)c3)C(=O)O)cc2)c1 | –
36 | – | 0.1 | CNC(=O)c1ccccc1-c1ccc(C[C@H](NC(=O)[C@@H]2CCCN2S(=O)(=O)c2cc(Cl)cc(Cl)c2)C(=O)O)cc1 | –
37 | – | 0.38 | O=Cc1ccc(-c2ccc(C[C@H](NC(=O)[C@@H]3CCCN3S(=O)(=O)c3cc(Cl)cc(Cl)c3)C(=O)O)cc2)cc1 | –
38 | – | 1.02 | O=C(O)[C@H](Cc1ccc(-c2ccccc2F)cc1)NC(=O)[C@@H]1CCCN1S(=O)(=O)c1cc(Cl)cc(Cl)c1 | –
39 | – | 0.4 | COC(=O)c1cccc(-c2ccc(C[C@H](NC(=O)[C@@H]3CCCN3S(=O)(=O)c3cc(Cl)cc(Cl)c3)C(=O)O)cc2)c1 | –
40 | – | – | COc1cccc(OC)c1-c1ccc(C[C@H](NC(=O)[C@@H]2CCN2S(=O)(=O)c2cc(Cl)cc(Cl)c2)C(=O)O)cc1 | clearance [4]: > 100 mL/min/kg; IC50 [3]: 10.6 nM
41 | 2260 | 192 | C[C@@]1(C(=O)N[C@@H](Cc2ccc(-c3ccccc3Cl)cc2)C(=O)O)CCCN1S(=O)(=O)c1cc(Cl)cc(Cl)c1 | –
42 | – | 0.13 | CN(C)C(=O)c1ccccc1-c1ccc(C[C@H](NC(=O)[C@@H]2CCCN2S(=O)(=O)c2cc(Cl)cc(Cl)c2)C(=O)O)cc1 | –
43 | 1240 | 1.01 | C[C@@]1(C(=O)N[C@@H](Cc2ccc(-c3cc(C#N)ccc3F)cc2)C(=O)O)CCCN1S(=O)(=O)c1cc(Cl)cc(Cl)c1 | –
